Laboratory results taken from patent US11414431B2, “Substituted pyrazolo[1,5-a]pyrimidines as TYK2 inhibitors” (Nimbus Lakshmi, Inc., priority 2018, dated 2022).

Test system: IL-12 induced STAT4 phosphorlyation mediated by TYK2/JAK2
Assay: IL-12 Induced pSTAT4 in Human PBMC
Assay type: cell-based
Details: 1.7 ng/mL IL-12 for 30 minutes
Method: Human PBMC were isolated from buffy coat and are stored frozen for assays as needed. […] 15 μL of compound or DMSO was added to the well at the desired concentrations and incubated at 1 hr at 37° C. 15 μL of stimulus (final concentration of 1.7 ng/mL IL-12) was added for 30 minutes prior to pSTAT4 and total STAT4 analysis using cell lysates prepared and analyzed by MSD reagents as per manufacturer protocol. The final DMSO concentration of compound in the assay was 0.1%.
The IL-12 induced pSTAT4 assay evaluates the inhibition of IL-12 induced STAT4 phosphorlyation mediated by TYK2/JAK2 (heterpdimeric complex).

SMILES: CNc1cc(Nc2cccn(C3CCC[C@@](C)(OC)C3)c2=O)nc2c(C(=O)N[C@@H]3C[C@@H]3F)cnn12 (some centres unmarked) [Compound I-130]
- IC50: < 0.1 µM

SMILES: CNc1cc(Nc2cccn([C@@H]3CCC[C@](C)(OC)C3)c2=O)nc2c(C(=O)N[C@@H]3C[C@@H]3F)cnn12 [Compound I-131]
- IC50: < 0.1 µM

SMILES: CNc1cc(Nc2cccn([C@H]3C[C@@H]3F)c2=O)nc2c(C(=O)N[C@@H]3C[C@H]3OC)cnn12 [Compound I-133]
- IC50: < 0.1 µM

SMILES: CNc1cc(Nc2cccn([C@@H]3C[C@H]3F)c2=O)nc2c(C(=O)N[C@@H]3C[C@H]3OC)cnn12 [Compound I-135]
- IC50: < 0.1 µM

SMILES: CNc1cc(Nc2cccn(C3CC(F)(F)C3)c2=O)nc2c(C(=O)N[C@@H]3C[C@H]3OC)cnn12 [Compound I-139]
- IC50: < 0.1 µM

SMILES: CNc1cc(Nc2cccn(C(C)C)c2=O)nc2c(C(=O)N[C@@H]3CC[C@H]3F)cnn12 [Compound I-147]
- IC50: < 0.1 µM

SMILES: CNc1cc(Nc2cccn([C@H]3C[C@@H]3F)c2=O)nc2c(C(=O)NC3CC[C@@H]3F)cnn12 (stereo partly drawn) [Compound I-148, N-((trans-1,2)-2-Fluorocyclobutyl)-5-((1-((1S,2S)-2-fluorocyclopropyl)-2-oxo-1,2-dihydropyridin-3-yl)amino)-7-(methylamino)pyrazolo[1,5-a]pyrimidine-3-carboxamide]
- IC50 (0.5 h): < 0.1 µM

SMILES: CNc1cc(Nc2cccn([C@H]3C[C@@H]3F)c2=O)nc2c(C(=O)N[C@H]3CC[C@@H]3F)cnn12 [Compound I-149]
- IC50: < 0.1 µM

SMILES: CNc1cc(Nc2cccn([C@@H]3C[C@H]3F)c2=O)nc2c(C(=O)NC3CC[C@@H]3F)cnn12 (some centres unmarked) [Compound I-151]
- IC50: < 0.1 µM

SMILES: CNc1cc(Nc2cccn([C@@H]3C[C@H]3OC)c2=O)nc2c(C(=O)N[C@H]3CC[C@@H]3F)cnn12 [Compound I-155]
- IC50: < 0.1 µM

SMILES: CNc1cc(Nc2cccn([C@H]3C[C@@H]3OC)c2=O)nc2c(C(=O)N[C@H]3CC[C@@H]3F)cnn12 [Compound I-158]
- IC50: < 0.1 µM

SMILES: CNc1cc(Nc2cccn([C@H]3C[C@H](F)C3)c2=O)nc2c(C(=O)NC3CC[C@@H]3F)cnn12 (some centres unmarked) [Compound I-164]
- IC50: < 0.1 µM

SMILES: CNc1cc(Nc2cccn([C@H]3C[C@H](F)C3)c2=O)nc2c(C(=O)N[C@H]3CC[C@@H]3F)cnn12 [Compound I-165]
- IC50: < 0.1 µM

SMILES: CNc1cc(Nc2cccn([C@H]3CC[C@H]3O)c2=O)nc2c(C(=O)NC3CC[C@@H]3F)cnn12 (some centres unmarked) [Compound I-167]
- IC50: < 0.1 µM

SMILES: CNc1cc(Nc2cccn([C@H]3CC[C@H]3O)c2=O)nc2c(C(=O)N[C@@H]3CC[C@H]3F)cnn12 [Compound I-169]
- IC50: < 0.1 µM

SMILES: CNc1cc(Nc2cccn([C@H]3C[C@@H](OC)C3)c2=O)nc2c(C(=O)N[C@H]3CC[C@@H]3F)cnn12 [Compound I-174]
- IC50: < 0.1 µM

SMILES: CNc1cc(Nc2cccn([C@H]3C[C@H](OC)C3)c2=O)nc2c(C(=O)N[C@@H]3CC[C@H]3F)cnn12 [Compound I-178]
- IC50: < 0.1 µM

SMILES: CNc1cc(Nc2cccn([C@@H]3CCC[C@@H]3O)c2=O)nc2c(C(=O)NC3CC[C@@H]3F)cnn12 (some centres unmarked) [Compound I-179]
- IC50: < 0.1 µM

SMILES: CNc1cc(Nc2cccn([C@@H]3CCC[C@@H]3O)c2=O)nc2c(C(=O)N[C@@H]3CC[C@H]3F)cnn12 [Compound I-181]
- IC50: < 0.1 µM

SMILES: CNc1cc(Nc2cccn(C3CCOCC3)c2=O)nc2c(C(=O)NC3CC[C@@H]3F)cnn12 (some centres unmarked) [Compound I-188]
- IC50: < 0.1 µM

SMILES: CNc1cc(Nc2cccn(C3CCOCC3)c2=O)nc2c(C(=O)N[C@@H]3CC[C@H]3F)cnn12 [Compound I-190]
- IC50: < 0.1 µM

SMILES: CNc1cc(Nc2cccn(C3CCOCC3)c2=O)nc2c(C(=O)NC3CC[C@H]3F)cnn12 (some centres unmarked) [Compound I-191]
- IC50: < 0.1 µM

SMILES: CNc1cc(Nc2cccn(C3CCOCC3)c2=O)nc2c(C(=O)N[C@H]3CC[C@H]3F)cnn12 [Compound I-192]
- IC50: < 0.1 µM

SMILES: CNc1cc(Nc2cccn(C3CCOCC3)c2=O)nc2c(C(=O)N[C@@H]3CC[C@@H]3F)cnn12 [Compound I-193]
- IC50: < 0.1 µM

SMILES: CNc1cc(Nc2cccn([C@@H]3CCCOC3)c2=O)nc2c(C(=O)NC3CC[C@@H]3F)cnn12 (some centres unmarked) [Compound I-194]
- IC50: < 0.1 µM

SMILES: CNc1cc(Nc2cccn([C@@H]3CCCOC3)c2=O)nc2c(C(=O)N[C@@H]3CC[C@H]3F)cnn12 [Compound I-196]
- IC50: < 0.1 µM

SMILES: CNc1cc(Nc2cccn([C@H]3CCCOC3)c2=O)nc2c(C(=O)NC3CC[C@@H]3F)cnn12 (some centres unmarked) [Compound I-197]
- IC50: < 0.1 µM

SMILES: CNc1cc(Nc2cccn([C@H]3CCCOC3)c2=O)nc2c(C(=O)N[C@H]3CC[C@@H]3F)cnn12 [Compound I-198]
- IC50: < 0.1 µM

SMILES: CNc1cc(Nc2cccn(-c3ccccn3)c2=O)nc2c(C(=O)NC3CC[C@@H]3F)cnn12 (some centres unmarked) [Compound I-200]
- IC50: < 0.1 µM

SMILES: CNc1cc(Nc2cccn(-c3ccccn3)c2=O)nc2c(C(=O)N[C@H]3CC[C@@H]3F)cnn12 [Compound I-201]
- IC50: < 0.1 µM

SMILES: CNc1cc(Nc2cccn([C@H]3[C@@H]4COC[C@@H]43)c2=O)nc2c(C(=O)NC3CC[C@H]3F)cnn12 (some centres unmarked) [Compound I-203]
- IC50: < 0.1 µM

SMILES: CNc1cc(Nc2cccn([C@H]3[C@@H]4COC[C@@H]43)c2=O)nc2c(C(=O)N[C@H]3CC[C@H]3F)cnn12 [Compound I-204]
- IC50: < 0.1 µM

SMILES: CNc1cc(Nc2cccn([C@H]3[C@@H]4COC[C@@H]43)c2=O)nc2c(C(=O)N[C@@H]3CC[C@@H]3F)cnn12 [Compound I-205]
- IC50: < 0.1 µM

SMILES: CNc1cc(Nc2cccn([C@H]3[C@@H]4COC[C@@H]43)c2=O)nc2c(C(=O)NC3CC[C@@H]3F)cnn12 (some centres unmarked) [Compound I-206]
- IC50: < 0.1 µM

SMILES: CNc1cc(Nc2cccn([C@H]3[C@@H]4COC[C@@H]43)c2=O)nc2c(C(=O)N[C@@H]3CC[C@H]3F)cnn12 [Compound I-208]
- IC50: < 0.1 µM

SMILES: CNc1cc(Nc2cccn([C@@H]3CCCC[C@@H]3O)c2=O)nc2c(C(=O)NC3CC[C@@H]3F)cnn12 (some centres unmarked) [Compound I-209]
- IC50: < 0.1 µM

SMILES: CNc1cc(Nc2cccn([C@@H]3CCCC[C@@H]3O)c2=O)nc2c(C(=O)N[C@@H]3CC[C@H]3F)cnn12 [Compound I-211]
- IC50: < 0.1 µM

SMILES: CNc1cc(Nc2cccn([C@H]3CCCC[C@H]3O)c2=O)nc2c(C(=O)NC3CC[C@@H]3F)cnn12 (some centres unmarked) [Compound I-212]
- IC50: 0.1 to 0.5 µM

SMILES: CNc1cc(Nc2cccn([C@H]3CCCC[C@H]3O)c2=O)nc2c(C(=O)N[C@@H]3CC[C@H]3F)cnn12 [Compound I-214]
- IC50: < 0.1 µM

SMILES: CNc1cc(Nc2cccn([C@@H]3CCOC[C@@H]3OC)c2=O)nc2c(C(=O)N[C@@H]3CC[C@H]3F)cnn12 [Compound I-217]
- IC50: < 0.1 µM

SMILES: CNc1cc(Nc2cccn([C@H]3CC[C@H](OC)CC3)c2=O)nc2c(C(=O)NC3CC[C@@H]3F)cnn12 (some centres unmarked) [Compound I-224]
- IC50: < 0.1 µM

SMILES: CNc1cc(Nc2cccn([C@H]3CC[C@H](OC)CC3)c2=O)nc2c(C(=O)N[C@H]3CC[C@@H]3F)cnn12 [Compound I-225]
- IC50: < 0.1 µM

SMILES: CNc1cc(Nc2cccn([C@@H]3CCC[C@@H](OC)C3)c2=O)nc2c(C(=O)NC3CC[C@@H]3F)cnn12 (some centres unmarked) [Compound I-227]
- IC50: < 0.1 µM

SMILES: CNc1cc(Nc2cccn([C@@H]3CCC[C@@H](OC)C3)c2=O)nc2c(C(=O)N[C@H]3CC[C@@H]3F)cnn12 [Compound I-228]
- IC50: < 0.1 µM

SMILES: CNc1cc(Nc2cccn([C@H]3CCC[C@H](OC)C3)c2=O)nc2c(C(=O)NC3CC[C@@H]3F)cnn12 (some centres unmarked) [Compound I-230]
- IC50: < 0.1 µM

SMILES: CNc1cc(Nc2cccn([C@H]3CCC[C@H](OC)C3)c2=O)nc2c(C(=O)N[C@H]3CC[C@@H]3F)cnn12 [Compound I-231]
- IC50: < 0.1 µM

SMILES: CNc1cc(Nc2cccn([C@@H]3CCOC[C@@H]3OC)c2=O)nc2c(C(=O)N[C@@H]3CC[C@@H]3F)cnn12 [Compound I-235]
- IC50: < 0.1 µM

SMILES: CNc1cc(Nc2cccn(C3CCN(CCF)CC3)c2=O)nc2c(C(=O)NC3CC[C@@H]3F)cnn12 (some centres unmarked) [Compound I-236]
- IC50: < 0.1 µM

SMILES: CNc1cc(Nc2cccn(C3CCN(CCF)CC3)c2=O)nc2c(C(=O)N[C@H]3CC[C@@H]3F)cnn12 [Compound I-237]
- IC50: < 0.1 µM

SMILES: CNc1cc(Nc2cccn([C@H]3CC[C@@H]3OC)c2=O)nc2c(C(=O)NC3CC[C@H]3O)cnn12 (some centres unmarked) [Compound I-239]
- IC50: < 0.1 µM

SMILES: CNc1cc(Nc2cccn([C@H]3CC[C@@H]3OC)c2=O)nc2c(C(=O)N[C@H]3CC[C@H]3O)cnn12 [Compound I-240]
- IC50: < 0.1 µM

SMILES: CNc1cc(Nc2cccn([C@@H]3CC[C@H]3OC)c2=O)nc2c(C(=O)N[C@H]3CC[C@H]3O)cnn12 [Compound I-243]
- IC50: < 0.1 µM

SMILES: CNc1cc(Nc2cccn([C@H]3C[C@@H](OC)C3)c2=O)nc2c(C(=O)N[C@H]3CC[C@@H]3OC)cnn12 [Compound I-253]
- IC50: < 0.1 µM

SMILES: CNc1cc(Nc2cccn([C@H]3C[C@H](OC)C3)c2=O)nc2c(C(=O)N[C@H]3CC[C@@H]3OC)cnn12 [Compound I-255]
- IC50: < 0.1 µM

SMILES: CNc1cc(Nc2cccn([C@H]3CCC[C@@H](C#N)C3)c2=O)nc2c(C(=O)N[C@@H]3CC[C@H]3OC)cnn12 [Compound I-258]
- IC50: < 0.1 µM

SMILES: CNc1cc(Nc2cccn([C@@H]3CCC[C@H](C#N)C3)c2=O)nc2c(C(=O)N[C@@H]3CC[C@H]3OC)cnn12 [Compound I-260]
- IC50: < 0.1 µM

SMILES: CNc1cc(Nc2cccn([C@H]3[C@@H]4COC[C@@H]43)c2=O)nc2c(C(=O)N[C@@H]3CC[C@H]3OC)cnn12 [Compound I-262]
- IC50: < 0.1 µM

SMILES: CNc1cc(Nc2cccn(-c3ccccn3)c2=O)nc2c(C(=O)N[C@@H]3CC[C@H]3OC)cnn12 [Compound I-264]
- IC50: < 0.1 µM

SMILES: CNc1cc(Nc2cccn(-c3ncccc3F)c2=O)nc2c(C(=O)NC3CC[C@H]3OC)cnn12 (some centres unmarked) [Compound I-265]
- IC50: < 0.1 µM

SMILES: CNc1cc(Nc2cccn(-c3ncccc3F)c2=O)nc2c(C(=O)N[C@@H]3CC[C@H]3OC)cnn12 [Compound I-266]
- IC50: < 0.1 µM

SMILES: CNc1cc(Nc2cccn([C@@H]3C[C@H]3F)c2=O)nc2c(C(=O)NC3CCC3(F)F)cnn12 (some centres unmarked) [Compound I-274]
- IC50: < 0.1 µM

SMILES: CNc1cc(Nc2cccn([C@@H]3C[C@H]3F)c2=O)nc2c(C(=O)N[C@@H]3CCC3(F)F)cnn12 [Compound I-276]
- IC50: < 0.1 µM
